The source of these data is publication PMC10539800, “Small-molecule inhibitors of the PDZ domain of Dishevelled proteins interrupt Wnt signalling” (Magnetic resonance, 2021).

The subject of experiment [1] is Dvl-3 PDZ. Kind of experiment: Binding constant by NMR titration. Details: species or system human. To be noted: from NMR K D values. The text has this:
(§1) K D is the equilibrium dissociation constant.

For experiment [2], the target named is T1, Dvl-3 PDZ (Homo sapiens, UniProt Q92997).
T1 construct: spectra of Dvl-3 PDZ in the absence and presence of the compound; His-tag (cleaved yes); made in house
T1 sequence (Q92997 243-336): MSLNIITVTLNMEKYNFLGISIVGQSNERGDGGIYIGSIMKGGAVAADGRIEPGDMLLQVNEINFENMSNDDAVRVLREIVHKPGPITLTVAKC
Kind of experiment: Binding constant by NMR titration. The conditions noted are these: by NMR; mean ± SD of at least six residues; read-out: K D Dvl-3 PDZ.
Source text: as §1

Experiment [3] deals with T2, Dvl-1 PDZ (Homo sapiens, UniProt O14640, C338S/V250I).
T2 sequence (O14640 245-338 V250I/C338S): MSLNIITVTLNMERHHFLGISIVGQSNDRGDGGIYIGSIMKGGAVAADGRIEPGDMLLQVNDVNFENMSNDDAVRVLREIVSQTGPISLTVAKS
Kind of experiment: Binding constant by NMR titration. Details: made in house; host or cells: E. coli BL21 (DE3). The conditions noted are these: mean ± SD of at least six residues, read-out: K D Dvl-1 PDZ.
Experimental: Chemical shift perturbations were obtained by comparing the ^1H-^15N backbone resonances of protein alone to those of protein–ligand complex. […] 1 Δδ=[ΔδH]^2+[ΔδN5]^2/2 Here ΔδN and ΔδH are the amide nitrogen and amide proton chemical shift differences between the free and the bound states of the protein. In order to estimate binding constants, titration experiments monitored by NMR were done. A series of ^1H-^15N HSQC were recorded as a function of ligand concentration. Residues showing a continuous chemical shift change and for which the intensity remained strong were classified as being in fast exchange. […] [LT] is the total concentration of the compound, and [PT] is the total concentration of the protein. K D is the equilibrium dissociation constant. The K D values are reported as means ± standard deviations of at least six residues influenced upon binding of the ligand.

The target of experiment [4] is T1, Dvl-3 PDZ. Description: NMR 1H-15N HSQC chemical shift perturbation. The class given is binding. The conditions noted are these: Dvl-3 PDZ; average of the three strongest shifting cross peaks. The procedure: The results of virtual screening were checked experimentally by comparing 2D ^1H-^15N HSQC (heteronuclear single quantum correlation) spectra of Dvl-3 PDZ in the absence and presence of the compound to elucidate ligand-induced changes of chemical shifts. Chemical shift perturbation differences ( Δ CSP, representing the average of the three strongest shifting cross peaks according to Eq. 1) were evaluated in cases where the residues responding strongest are inside the area defined by Fig. 1a. […] In most cases, the signals of residues S263, V287, and R320 (Fig. 1a) within the conserved binding site were most strongly perturbed (Fig. S2). With the Δ CSP of 0.12 ppm, the isoleucine-derived compound 1 ((2,3-dihydrobenzo[b][1,4]dioxin-6-yl)sulfonyl)-L-isoleucine containing a sulfonamide moiety was detected initially as one of the best “hits” according to chemical shift changes. The sulfonamide is a well-known moiety in drug discovery (Mathvink et al., 1999; Wu et al., 1999; Sleight et al., 1998; O'Brien et al., 2000; Tellew et al., 2003).
Two-dimensional ^1H-^15N HSQC spectra were used to screen a library of 212 compounds designed by the company Enamine for PDZ domains. 50 µM of ^15N -labelled protein samples was prepared in a 20 mM sodium phosphate buffer, containing 50 mM sodium chloride, 0.02 % ( w/v ) NaN3 , at pH 7.4. Stock solutions of small molecules were prepared in DMSO-d6 at a concentration of 160 mM. A ^1H-^15N HSQC spectrum of Dvl PDZ was acquired at 300 K with 5 % DMSO-d6 in the absence of ligand as reference spectrum. Mixtures of 16 compounds were added to ^15N -labelled Dvl PDZ at eightfold molar excess each. The final concentration of DMSO-d6 in the protein–ligand solutions was 5 %. Spectra were acquired with eight scans and 256 points in the indirect dimension. […] The active compound was obtained through successive deconvolution. Experiments were recorded on a Bruker DRX600 spectrometer equipped with a triple-resonance cryoprobe. The preparation of samples was done automatically by a Tecan Genesis RSP 150 pipetting robot. Spectra were analysed using the programs TOPSPIN and SPARKY (Goddard and Kneller, 2003).
50 µM of ^15N -labelled protein samples was prepared in a 20 mM sodium phosphate buffer containing 50 mM sodium chloride, 0.02 % ( w/v ) NaN3 , at pH 7.4. Stock solutions of small molecules were prepared in DMSO-d6 at a concentration of 160 mM. A ^1H-^15N HSQC spectrum of Dvl PDZ was acquired at 300 K with 5 % DMSO-d6 in the absence of ligand as reference spectrum. Mixtures of 16 compounds were added to ^15N -labelled Dvl PDZ at eightfold molar excess each. The final concentration of DMSO-d6 in the protein–ligand solutions was 5 %. Spectra were acquired with eight scans and 256 points in the indirect dimension.
The active compound was obtained through successive deconvolution. Experiments were recorded on a Bruker DRX600 spectrometer equipped with a triple-resonance cryoprobe. The preparation of samples was done automatically by a Tecan Genesis RSP 150 pipetting robot. Spectra were analysed using the programs TOPSPIN and SPARKY.

Experiment [5] concerns the target Dvl-1 PDZ. Details: method as in Kim et al., 2016. The conditions noted are these: value from literature; ref Kim et al., 2016; read-out: K D Dvl-1 PDZ; cited from earlier work.

Structures are written as SMILES.

On to `O=C(O)c1cc(F)ccc1NS(=O)(=O)c1ccc2c(c1)CCCC2` [Compound 5], for which the “discrimination between Dvl-3 PDZ and Dvl-1 PDZ (in words)” value in experiment [1] is reported as “did not distinguish”. Besides, the figures for the Kd in experiment [2] and in experiment [3] were 141 ± 14.1 µM and 160 ± 14.6 µM, respectively. The “Chemical shift perturbation ΔCSP” value in experiment [4] was more than 0.2 ppm.
As for `CCOC(=O)c1cc2cc(O)ccc2n1CC(=O)NCCN1CCCCC1` [Ky-02327, ethyl 5-hydroxy-1-(2-oxo-2-((2-(piperidin-1-yl)ethyl)amino)ethyl)-1H-indole-2-carboxylate], the Kd in experiment [5] was 8.3 ± 0.8 µM.
